Test results taken from patent US12077503B2, “Substituted cyclic amides and their use as herbicides” (FMC CORPORATION, priority 2015, dated 2024).

What was measured:
Assay type in all cases: in vivo
Kochia (Kochia scoparia) [1] = test: Test A preemergence; details: Bassia scoparia, pre-emergence, 240 h, 0 to 100 scale where 0 is no effect and 100 is complete control, read-out: Kochia plant response rating
Method in brief: (§1)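 Compounds were formulated in a non-phytotoxic solvent mixture with surfactant and applied as a preemergence directed soil spray after seeding, or sprayed postemergence over plants 2 to 10 cm tall at the one- to two-leaf stage. Evaluation after about 10 d compared treated with untreated controls, using a scale from 0 (no effect) to 100 (complete control).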

[2] = test system: ragweed (common ragweed, Ambrosia elatior); test: Test A preemergence; details: Ambrosia artemisiifolia, pre-emergence, 240 h, 0 to 100 scale where 0 is no effect and 100 is complete control, read-out: Ragweed plant response rating
Method in brief: as §1

[3] = test system: giant foxtail (Setaria faberii); test: Test A preemergence; details: Setaria faberi, pre-emergence, 240 h, 0 to 100 scale where 0 is no effect and 100 is complete control, read-out: Foxtail, Giant plant response rating
Method in brief: as §1

[4] = test system: pigweed (Amaranthus retroflexus); test: Test A preemergence; details: Amaranthus retroflexus, pre-emergence, 240 h, 0 to 100 scale where 0 is no effect and 100 is complete control, read-out: Pigweed plant response rating
[5] = test system: ryegrass, Italian (Italian ryegrass, Lolium multiflorum); test: Test A preemergence; details: Lolium multiflorum, pre-emergence, 240 h, 0 to 100 scale where 0 is no effect and 100 is complete control, read-out: Ryegrass, Italian plant response rating
Method in brief: as §1

[6] = test system: barnyardgrass (Echinochloa crus-galli); test: Test A preemergence; details: Echinochloa crus-galli, pre-emergence, 240 h, 0 to 100 scale where 0 is no effect and 100 is complete control, read-out: Barnyardgrass plant response rating
Method in brief: as §1

[7] = test system: ducksalad (Heteranthera limosa); test: Test B flooded paddy test; details: Heteranthera limosa, 250 g ai/ha, Flood; 0 to 100 scale where 0 is no effect and 100 is complete control; read-out: Ducksalad plant response rating
Method in brief: (§2)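 Evaluation by eye, against controls, occurred 13–15 d post-treatment in a greenhouse, using a 0 (no effect) to 100 (complete control) scale. Application was into the paddy water, 3 cm deep over the soil, on 2-leaf plants.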

rice (Oryra sativa) = test: Test B flooded paddy test; details: Oryza sativa, 250 g ai/ha, Flood; 0 to 100 scale where 0 is no effect and 100 is complete control; read-out: Rice plant response rating
Method in brief: as §2

[8] = test system: sedge, umbrella (small-flower umbrella sedge, Cyperus difformis); test: Test B flooded paddy test; details: Cyperus difformis, 250 g ai/ha, Flood; 0 to 100 scale where 0 is no effect and 100 is complete control; read-out: Sedge, Umbrella plant response rating
Method in brief: as §2

[9] = test system: barnyardgrass (Echinochloa crus-galli); test: Test B flooded paddy test; details: Echinochloa crus-galli, 250 g ai/ha, Flood; 0 to 100 scale where 0 is no effect and 100 is complete control; read-out: Barnyardgrass plant response rating
Method in brief: as §2

Kochia (Kochia scoparia) [10] = test: Test A postemergence; details: Bassia scoparia, post-emergence, 240 h
Method in brief: as §1

[11] = test system: wheat (Triticum aestivum); test: Test A postemergence; details: Triticum aestivum, post-emergence, 240 h
Method in brief: as §1

[12] = test system: ragweed (common ragweed, Ambrosia elatior); test: Test A postemergence; details: Ambrosia artemisiifolia, post-emergence, 240 h
Method in brief: as §1

[13] = test system: Galium (catchweed bedstraw, Galium aparine); test: Test A postemergence; details: Galium, post-emergence, 240 h
Method in brief: as §1

[14] = test system: giant foxtail (Setaria faberii); test: Test A postemergence; details: Setaria faberi, post-emergence, 240 h
Method in brief: as §1

[15] = test system: pigweed (Amaranthus retroflexus); test: Test A postemergence; details: Amaranthus retroflexus, post-emergence, 240 h
Method in brief: as §1

[16] = test system: blackgrass (Alopecurus myosuroides); test: Test A postemergence; details: Alopecurus myosuroides, post-emergence, 240 h
Method in brief: as §1

corn (Zea mays) = test: Test A postemergence; details: Zea mays, post-emergence, 240 h
Method in brief: as §1

[17] = test system: ryegrass, Italian (Italian ryegrass, Lolium multiflorum); test: Test A postemergence; details: Lolium multiflorum, post-emergence, 240 h
Method in brief: as §1

[18] = test system: barnyardgrass (Echinochloa crus-galli); test: Test A postemergence; details: Echinochloa crus-galli, post-emergence, 240 h
Method in brief: as §1

[19] = 125 g ai/ha, preemergence, approx. 10 d

Q: What does the source list for `CN1C[C@H](c2cccc([Si](C)(C)C)c2)[C@@H](C(=O)Nc2cccc(F)c2F)C1=O` [Compound 1166]?
A: pest or weed control at 31 g/ha (Kochia (Kochia scoparia) [1]; 31 g ai/ha, Preemergence): 0%; pest or weed control at 125 g/ha (Kochia (Kochia scoparia) [1]; [19]): 0%; pest or weed control at 31 g/ha ([2]; 31 g ai/ha, Preemergence): 0%; pest or weed control at 125 g/ha [2, 19]: 0%; pest or weed control at 31 g/ha ([3]; 31 g ai/ha, Preemergence): 20%; pest or weed control at 125 g/ha [3, 19]: 80%; pest or weed control at 31 g/ha ([4]; 31 g ai/ha, Preemergence): 0%; pest or weed control at 125 g/ha [4, 19]: 0%; pest or weed control at 31 g/ha ([5]; 31 g ai/ha, Preemergence): 0%; pest or weed control at 125 g/ha [5, 19]: 0%; pest or weed control at 31 g/ha ([6]; 31 g ai/ha, Preemergence): 0%; pest or weed control at 125 g/ha [6, 19]: 20%; pest or weed control at 250 g/ha [7]: 30%; pest or weed control at 250 g/ha (rice (Oryra sativa)): 25%; pest or weed control at 250 g/ha [8]: 0%; pest or weed control at 250 g/ha [9]: 40%; pest or weed control at 125 g/ha (Kochia (Kochia scoparia) [10]; 125 g ai/ha, postemergence, visual injury vs untreated controls after approx. 10 d, 0 = no effect, 100 = complete control, read-out: Kochia plant response rating (0 to 100 scale)): 0%; pest or weed control at 31 g/ha (Kochia (Kochia scoparia) [10]; Postemergence, 31 g ai/ha, visual injury after approx. 10 d, 0 to 100 scale, 0 no effect, 100 complete control, read-out: Plant response rating, Kochia): 0%; plant injury at 125 g/ha ([11]; 125 g ai/ha, postemergence, visual injury vs untreated controls after approx. 10 d, 0 = no effect, 100 = complete control, read-out: Wheat plant response rating (0 to 100 scale)): 0%; plant injury at 31 g/ha ([11]; Postemergence, 31 g ai/ha, visual injury after approx. 10 d, 0 to 100 scale, 0 no effect, 100 complete control, read-out: Plant response rating, Wheat): 0%; pest or weed control at 125 g/ha ([12]; 125 g ai/ha, postemergence, visual injury vs untreated controls after approx. 10 d, 0 = no effect, 100 = complete control, read-out: Ragweed plant response rating (0 to 100 scale)): 0%; pest or weed control at 31 g/ha ([12]; Postemergence, 31 g ai/ha, visual injury after approx. 10 d, 0 to 100 scale, 0 no effect, 100 complete control, read-out: Plant response rating, Ragweed): 0%; pest or weed control at 125 g/ha ([13]; 125 g ai/ha, postemergence, visual injury vs untreated controls after approx. 10 d, 0 = no effect, 100 = complete control, read-out: Galium plant response rating (0 to 100 scale)): 0%; pest or weed control at 31 g/ha ([13]; Postemergence, 31 g ai/ha, visual injury after approx. 10 d, 0 to 100 scale, 0 no effect, 100 complete control, read-out: Plant response rating, Galium): 0%; pest or weed control at 125 g/ha ([14]; 125 g ai/ha, postemergence, visual injury vs untreated controls after approx. 10 d, 0 = no effect, 100 = complete control, read-out: Foxtail, Giant plant response rating (0 to 100 scale)): 20%; pest or weed control at 31 g/ha ([14]; Postemergence, 31 g ai/ha, visual injury after approx. 10 d, 0 to 100 scale, 0 no effect, 100 complete control, read-out: Plant response rating, Foxtail, Giant): 0%; pest or weed control at 125 g/ha ([15]; 125 g ai/ha, postemergence, visual injury vs untreated controls after approx. 10 d, 0 = no effect, 100 = complete control, read-out: Pigweed plant response rating (0 to 100 scale)): 0%; pest or weed control at 31 g/ha ([15]; Postemergence, 31 g ai/ha, visual injury after approx. 10 d, 0 to 100 scale, 0 no effect, 100 complete control, read-out: Plant response rating, Pigweed): 0%; pest or weed control at 125 g/ha ([16]; 125 g ai/ha, postemergence, visual injury vs untreated controls after approx. 10 d, 0 = no effect, 100 = complete control, read-out: Blackgrass plant response rating (0 to 100 scale)): 0%; pest or weed control at 31 g/ha ([16]; Postemergence, 31 g ai/ha, visual injury after approx. 10 d, 0 to 100 scale, 0 no effect, 100 complete control, read-out: Plant response rating, Blackgrass): 0%; plant injury at 125 g/ha (corn (Zea mays); 125 g ai/ha, postemergence, visual injury vs untreated controls after approx. 10 d, 0 = no effect, 100 = complete control, read-out: Corn plant response rating (0 to 100 scale)): 0%; Corn plant response rating (crop injury, 0 = no effect, 100 = complete kill) at 31 g/ha (corn (Zea mays); Postemergence, 31 g ai/ha, visual injury after approx. 10 d, 0 to 100 scale, 0 no effect, 100 complete control): 0%; pest or weed control at 125 g/ha ([17]; 125 g ai/ha, postemergence, visual injury vs untreated controls after approx. 10 d, 0 = no effect, 100 = complete control, read-out: Ryegrass, Italian plant response rating (0 to 100 scale)): 0%; pest or weed control at 31 g/ha ([17]; Postemergence, 31 g ai/ha, visual injury after approx. 10 d, 0 to 100 scale, 0 no effect, 100 complete control, read-out: Plant response rating, Ryegrass, Italian): 0%; pest or weed control at 125 g/ha ([18]; 125 g ai/ha, postemergence, visual injury vs untreated controls after approx. 10 d, 0 = no effect, 100 = complete control, read-out: Barnyardgrass plant response rating (0 to 100 scale)): 0%; pest or weed control at 31 g/ha ([18]; Postemergence, 31 g ai/ha, visual injury after approx. 10 d, 0 to 100 scale, 0 no effect, 100 complete control, read-out: Plant response rating, Barnyardgrass): 0%
